Measurements: patent US9642897B2, “Treatment of bone diseases” (THE UNIVERSITY OF SYDNEY, priority 2011, dated 2017)

How the values were obtained:
[1] = Pharmacokinetics of oral PA: serum concentrations by GC-MS; type: in vivo, C57BL/6 mice
Description: (§1) Nine-month-old oophorectomised (OVX) and SHAM-operated C57BL/6 mice (n=24 per group) were obtained from the Animal Resources Centre (Perth, Wash.). After 2 weeks of acclimation, mice were divided into four groups (Table 2) and received treatment in their drinking water for a total of 6 weeks. Mice treated with plain water were used as controls. Mice were housed in cages in a limited access room.
For absorption analysis of minerals in the duodenum, tissue was dissected and left to dry up in room temperature. 100 mg of tissue were dissolved in nitric acid and concentrations of nine minerals was quantified in the tissue homogenates using an Agilent 5973 mass selective detector via an auto-sampler Agilent Technologies 7683, and controlled using Agilent ChemStation software (Agilent, Santa Clara, Calif., USA). For pharmacokinetic analysis of PA, serum of Pa- and vehicle-treated animals was obtained by centrifugation. 1 μl of serum was injected into an Agilent 6890 gas chromato-graph, interfaced to an Agilent 5973 mass selective detector via an auto-sampler Agilent Technologies 7683, and controlled using Agilent ChemStation software (Agilent, Santa Clara, Calif., USA).

[2] = Therapeutic safety of oral PA: weight, water consumption, survival; type: in vivo, C57BL/6 mice; conditions: for Weight: after 6 weeks; for Water left: initial volume 500 mL, weekly average
Procedure: as §1
Water left in the bottle (initial volume of 500 mL) was also quantified every week. […] These volumes correspond with the drinking pattern previously reported in this mouse model. (iii) Effect of Oral PA on Mineral Absorption in OVX Mice

[3] = system: OVX C57BL/6 mice (osteoporosis model); assay: Quantitative μCT of femur and vertebrae in Sham and OVX mice; type: in vivo; conditions: oral PA 6 weeks
Procedure: Nine-month-old oophorectomised (OVX) and SHAM-operated C57BL/6 mice (n=24 per group) were obtained from the Animal Resources Centre (Perth, Wash.). After 2 weeks of acclimation, mice were divided into four groups (Table 2) and received treatment in their drinking water for a total of 6 weeks. Mice treated with plain water were used as controls. Mice were housed in cages in a limited access room. Mice were administered a lethal dose of anaesthetic at the indicated times, exsanguinated, and imaged using a Faxitron MX20 equipped with an FPX-2 Imaging system (Dalsa Medoptics, Waterloo, Ontario, Canada). μ-CT was performed on the left femur and lumbar vertebrae after removal of soft tissues and overnight fixation in 4% paraformaldehyde. The distal metaphysis of the femur and the body of the vertebrae were scanned with a Skyscan 1072 micro-CT instrument (Skyscan, Antwerp, Belgium). Image acquisition was performed at 100 kV and 98 μA, with a 0.9° rotation between frames. The two-dimensional images were used to generate three-dimensional reconstructions to obtain quantitative data with the 3D Creator software supplied with the instrument. Nomenclature and abbreviations of 3D-μCT parameters follow the recommendations of the American Society of Bone and Mineral Research (see Bouxsein et al. (2010), “Guidelines for assessment of bone microstructure in rodents using micro-computed tomography”, J Bone Miner Res., 25: 1468-1486).

[4] = system: OVX C57BL/6 mice (osteoporosis model); assay: Bone histology and dynamic histomorphometry in Sham and OVX mice; type: in vivo
Description: as §1
For dynamic histomorphometry, tetracycline labelling was achieved through the intraperitoneal injection of demeclocycline (20 mg/kg) (Sigma Chemicals, St. Louis, Mo., USA) to the three treated groups at 5 and 2 days before sacrifice. One side femur from each animal in each group was removed at the time of killing, fixed in 70% ethanol, dehydrated, and embedded undecalcified in methylmethacrylate (J-T Baker, Phillipsburg, N.J., USA). At 50 μm intervals, longitudinal sections of 5 and 8 μm thick were cut using a polycut-E microtome (Reichert-Jung Leica, Heerbrugg, Switzerland), placed on gelatine-coated glass slides, deplastified and stained with Goldner's trichrome. Histomorphometry was done with a semi-automatic image analysing system combining a microscope equipped with a camera lucida and digitizing tablet linked to a computer using the OsteoMeasure Software (Osteometrics Inc., Decatur, Ga., USA). Nomenclature and abbreviations of histomorphometric parameters follow the recommendations of the American Society of Bone and Mineral Research (see Parfitt et al. (1987), “Bone histomorphometry: Standardization of nomenclature, symbols and units”, J Bone Miner Res., 2: 595-610.)

Runx2 and OCN = assay: Western blot of Runx2 and OCN in bone marrow cells of PA-treated mice; type: in vivo, C57BL/6 mice
Procedure: Marrow cells were obtained from the left femur of PA- and vehicle-treated animals (n=6 per group) by flushing with Dulbecco's alpha modified medium (DMEM). Red blood cells in marrow cells were hemolyzed in 0.017 M tris-HCl, pH 7.5, buffer containing 0.8% ammonium chloride. Hemolyzed bone marrow suspensions were rinsed twice with phosphate buffered saline (PBS). Protein extracts were obtained after suspending the cells in 2 volumes of buffer containing 10 mM EDTA, 0.5 mM phenylmethylsulfonyl fluoride, and one Complete™ protease inhibitor mixture tablet (Boehringer Mannheim, Laval, Quebec, Canada). […] Protein content was determined with a protein assay kit (Bio-Rad. Mississauga, Ontario), and samples were then aliquoted and stored at −80° C. […] Antigen-antibody complexes were detected by chemiluminescence using a kit of reagents from ECL (Amersham, UK) and blots were exposed to high-performance chemiluminescence film (Amersham, UK). Films were scanned and the optical density of each specific band analysed using the ImageMaster program and expressed as OD/mm2/100 μg of total protein. Relative intensity of the samples was determined comparing the protein of interest in the treated mice using the values of vehicle-treated mice as controls (100%). […]

With O=C(O)c1ccccn1 [PA, pyridine-2-carboxylic acid] the “serum concentrations of PA at higher dose” value ([1]; higher dose vs 0.5 gm/Kg/d) was “not followed by higher serum concentrations”, the “serum concentrations of PA, OVX vs SHAM counterpart” value ([1]; low dose of PA) was “lower serum concentrations” and the “serum concentrations of PA” value ([1]; oral PA in drinking water, 6 weeks, Sham and OVX mice) was “increased in the treated groups in a dose-dependent manner”. The Weight ([2]; OVX, PA250 (250 mg/kg/d)) was 26 ± 1.6 gm, the Water left ([2]; OVX, PA250) was 195 ± 28 ml/week and the Weight ([2]; OVX, PA500 (500 mg/kg/d)) was 28 ± 0.4 gm. For the same compound, the Water left ([2]; OVX, PA500) was 195 ± 35 ml/week, the Weight ([2]; OVX, PA1000 (1 gm/kg/d)) was 26 ± 1.3 gm and the Water left ([2]; OVX, PA1000) was 250 ± 38 ml/week. The Weight ([2]; Sham, PA250 (250 mg/kg/d)) was 27 ± 2.0 gm, the Water left ([2]; Sham, PA250) was 200 ± 32 ml/week and the Weight ([2]; Sham, PA500 (500 mg/kg/d)) was 26 ± 2.4 gm. For the same compound, the Water left ([2]; Sham, PA500) was 155 ± 35 ml/week, the Weight ([2]; Sham, PA1000 (1 gm/kg/d)) was 26 ± 1.3 gm and the Water left ([2]; Sham, PA1000) was 260 ± 45 ml/week. For the same compound, the mice survival rate ([2]; female, C57BL/6, mouse, in vivo, po, 6 weeks) was 100%, the side effects ([2]; oral PA 6 weeks) was “no evidence of side effects” and the “weight and water consumption vs vehicle-treated controls” value ([2]; oral PA 6 weeks) was “no difference”. For the same compound, the “bone relative to tissue volume (BV/TV)” value [3] was “significant and dose-dependent increase”, the “numbers of trabeculae (Tb.N)” value [3] was “increased” and the “thickness of trabeculae (Tb.Th)” value [3] was “increased”. The “bone turnover (fluorochrome double labelling)” value ([4]; Sham and OVX mice, oral PA 6 weeks) was “significant and dose-dependent increase in bone turnover”, the “mineral apposition rates (MAR)” value ([4]; trabecular and cortical bone, vs vehicle) was “increased mineral apposition rates” and the “mineralized bone (Von Kossa labelling)” value ([4]; vs untreated controls) was “higher levels of mineralized bone”. The “protein expression of OCN and Runx2 (immunoblot)” value (Runx2 and OCN) was “significant increase”.
